For assay [1], the system named is RAW264.7. Briefly: Inhibition of LPS-stimulated NO production in mouse RAW264.7 cells at 16 uM after 20 hrs by Griess reagent-based assay. The assay is classed as functional, cell-based.
Assay [2] concerns Escherichia coli. Briefly: Bactericidal activity against Escherichia coli ATCC 25922 assessed as elimination of bacterial cells at MBC after 30 mins by time kill assay. It is filed as functional.

The source made the active and inactive calls. The calls are words filed in the database; no cut-off is given here.

With H-IRPIIRPIIRPIIRPIIRPIIRPIIRPI-NH2, the inhibition entry in assay [1] is “Active”.
In the case of H-LKPLLKPLLKPLLKPLLKPLLKPLLKPL-NH2, in assay [2], the Activity was above 99.99%.
